Measured values from patent publication US20250375129A1, “USE OF BLINK REFLEX FOR ATTENTION-DEFICIT/HYPERACTIVITY DISORDER (ADHD) RESPONSE MONITORING AND/OR TREATMENT SELECTION” (Blinktbi, Inc., priority 2022, published 2025).
“Also recorded” adds a separate entry of the source.

Test system: blink reflex
Assay: Blink reflex response parameters in ADHD patients before and 1 hour after their prescribed ADHD medication versus non-ADHD controls (pilot study)
Assay type: in vivo, humans
Conditions: for Max closing velocity, effect of medication type (in words): compared to controls and participants before taking their ADHD medications; for Delta 30, Estimate of Fixed Effects / Excursions, Estimate of Fixed Effects / Initial Velocity, Estimate of Fixed Effects / Max Closing Velocity, Estimate of Fixed Effects / Differential Latency, Estimate of Fixed Effects: Model 3 mixed model by medication type; for Delta 30, Estimate of Fixed Effects / Excursions, Estimate of Fixed Effects / Initial Velocity, Estimate of Fixed Effects / Max Closing Velocity, Estimate of Fixed Effects / Differential Latency, Estimate of Fixed Effects / Max Closing Velocity, Estimate of Fixed Effects, further analysis: relative to Med_type = 4 (Control); for Differential Latency, Estimate of Fixed Effects: AMP n=20, ATX n=2, MPH n=2; for Max Closing Velocity, Estimate of Fixed Effects, further analysis: Model 3 with confounders hours of sleep, urine specific gravity and age

Row | SMILES | Delta 30, effect of medication type (in words) (Model 3) | Differential Latency, effect of medication type (in words) (Model 3) | Max closing velocity, effect of medication type (in words) (Model 3) | Delta 30, Estimate of Fixed Effects | Excursions, Estimate of Fixed Effects | Initial Velocity, Estimate of Fixed Effects | Max Closing Velocity, Estimate of Fixed Effects | Differential Latency, Estimate of Fixed Effects | Max Closing Velocity, Estimate of Fixed Effects, further analysis | Excursions, effect of medication type (in words) (Model 3) | Initial Velocity, effect of medication type (in words) (Model 3) | Blink reflex parameters predictive for treatment type (in words) (Model 3 conclusion, ATX=2, MPH=2, AMP=20 participants)
1 | CNCC[C@@H](Oc1ccccc1C)c1ccccc1 [ATX] | statistically significant | statistically significant | associated with an increase | −4.184 | 13.866 | .532 | 2.659 | −2.456 | 2.277 | – | – | –
2 | COC(=O)C(c1ccccc1)C1CCCCN1 (stereo not drawn) [MPH, methylphenidate] | statistically significant | statistically significant | associated with an increase | −1.756 | 14.707 | .578 | 1.378 | −0.980 | 1.265 | statistically significant | statistically significant; also recorded: slight increase | particularly predictive
